Like-named read-outs stand apart in the source and are kept apart here.
Tests used:
[1] = system: murine-lung-derived dendritic cells and a BALB/c-derived monocyte macrophage cell line; details: cited from earlier work
[2] = system: ELF proteins; test: Fraction unbound in epithelial lining fluid calculated by Poulin and Theil equation, rat; details: calculated from fu in plasma and albumin ratio plasma/ELF
Procedure: (§1) For intravenous administration, the bolus dose was assumed to be mixed instantaneously into the venous blood. For subcutaneous administration, the dose was administered as an external compartment, absorbed into the venous compartment via a first-order absorption rate constant and a bioavailability component. For intrapulmonary aerosol administration, we have modified the lung tissue by adding the epithelial lining fluid (ELF) sub-compartment, as shown in Figure 2. The physiological volume of the ELF sub-compartment was obtained from the literature. The dose was administered as an external compartment, absorbed into the ELF compartment via a first-order absorption rate constant and a bioavailability component. The compound was assumed to be bound to the ELF proteins, and only the unbound fraction was distributed to the other sub-compartments of the lungs and ultimately to the systemic circulation. The fraction unbound in ELF was calculated from the fraction unbound in plasma and the albumin ratio between plasma and ELF using the equation described by Poulin and Theil.

[3] = system: ELF proteins; test: Fraction unbound in epithelial lining fluid calculated by Poulin and Theil equation, mouse; details: calculated from fu in plasma and albumin ratio plasma/ELF
Procedure: as §1

[4] = Rat (225 g); Sprague-Dawley blood, 37 °C, 1 h
Procedure: (§3) Fresh blood was collected from BALB/c mice and Sprague-Dawley rats via cardiac puncture in tubes with lithium heparin as anticoagulant. Hematocrit was measured using a VetScan HM5 hematology analyzer (Abaxis, Union City, CA, USA). […] Aliquots of pre-warmed whole blood and plasma were spiked with the test compounds and incubated at 37 °C. After 1 h of incubation, the incubated whole blood was removed, and the plasma was separated by centrifugation. Aliquots of the incubated control plasma were also removed after 1 h of incubation. Plasma samples were treated with 8 volumes of ice-cold methanol containing internal standard (100 ng/mL spectinomycin) and analyzed for drug concentrations by LC-MS/MS [12].
(§4) The whole blood to plasma ratio k(b/p) was calculated by taking the ratio of the concentrations measured in the control plasma over the concentrations measured in the plasma centrifuged from the incubated whole blood, as shown in Equation (2). The erythrocyte to plasma partitioning coefficient k(RBC/p) was calculated from the whole blood to plasma ratio by accounting for the measured hematocrit, as shown in Equation (3):(2) k(b/p)=CCP/CP (3) k(RBC/p)=1+1/HCCP/CP−1 where CCP is the concentration of the test compound in the control plasma, CP is the concentration of the test compound in the plasma centrifuged from the incubated whole blood, and H is the measured hematocrit value.

[5] = system: plasma proteins; test: Plasma protein binding by equilibrium dialysis (RED device), mouse plasma; type: in vitro ADME, BALB/c mice
Procedure: (§2) Plasma protein binding was measured by equilibrium dialysis using a RED device (8 kDa molecular cutoff; Thermo Scientific, Rockford, IL, USA) containing plasma and buffer chambers for dialysis and a base plate. Two concentrations (0.5 and 5 mg/L) of 1599 and 1810 were prepared in mouse plasma from BALB/c mice and rat plasma from Sprague-Dawley rats, and an aliquot of 300 µL was added in the plasma chamber in duplicate. A 500 µL aliquot of PBS was added in the buffer chamber for dialysis. Then, the base plate was covered with sealing tape and incubated at 37 °C at approximately 100 rpm on an orbital shaker for 4 h to achieve equilibrium. After incubation, 50 µL of each sample was pipetted from the plasma and buffer chambers into separate micro-centrifuge tubes. A total of 50 µL of plasma was added to the buffer samples and an equal volume of PBS to the collected plasma samples and vortexed. Samples were processed by protein precipitation and analyzed for bound and unbound drug concentrations by liquid chromatography-tandem mass spectrometry (LC-MS/MS). Ranitidine (0.5 and 5 mg/L) was included as a positive control. The fraction of compound unbound to plasma proteins (fu) was calculated from the measured concentrations in the plasma and buffer chambers using the following equation:(1) fu=1−C(Plasma Chamber)−C(Buffer Chamber)/C(Plasma Chamber)

[6] = cited from earlier work; for AUCinf Liver Observed / AUCinf Lung Observed / AUCinf Observed / AUCinf Spleen Observed: healthy mice; for AUCinf Observed: plasma
[7] = Simcyp multicompartment lung and granuloma model simulation; details: Simcyp model input parameter (Table S1), human PBPK model
[8] = Minimalistic PBPK model, mouse (fitting and simulation); details: for F Bioavailability component / Ka 1st order absorption rate constant / AUCinf Liver Fold Difference / AUCinf Lung Fold Difference / AUCinf Fold Difference (predicted vs observed) / AUCinf Spleen Fold Difference: healthy mice; for AUCinf Fold Difference (predicted vs observed): plasma
[9] = Mouse (20 g); BALB/c blood, 37 °C, 1 h
Procedure: as §3, §4

[10] = Integrated mouse and rat PBPK model, inter-animal variability; details: Intravenous Estimate (%RSE); simultaneous fit of mouse and rat plasma and tissue data
[11] = Subcutaneous PBPK model predictions vs observed plasma concentrations in Mtb infected mice; type: in vivo, BALB/c mice; details: SC dose-ranging and dose-fractionation studies
[12] = Parallel artificial membrane permeability assay (PAMPA); type: in vitro ADME; details: passive permeability could not be determined
[13] = healthy rats, plasma, IV SD 10 mg/kg; cited from earlier work
[14] = system: plasma proteins; test: Plasma protein binding by equilibrium dialysis (RED device), rat plasma; type: in vitro ADME, Sprague-Dawley rats; details: 0.5 and 5 mg/L, 37 °C, 4 h
Procedure: as §2

[15] = healthy rats, plasma, IV SD 10 mg/kg
From the text: After the successful inter-route extrapolation of the model, we scaled the PBPK model between species by extending the model to rats. This was accomplished by incorporating the physiological parameters of a 225 g rat and updating the experimentally assessed drug-specific parameters k(b/p) and fu.

[16] = Intratracheal Estimate (%RSE), intrapulmonary aerosol single dose 50 mg/kg
[17] = Intravenous Estimate (%RSE), model fitted to IV single dose 10 mg/kg plasma and tissue data

For `CN[C@@H]1[C@H](O)[C@H](NC)[C@H]2O[C@]3(O)[C@H](O[C@@H]2[C@H]1O)O[C@H](C)C[C@H]3NC(=O)Cc1ccc(Cl)cn1` [Spectinamide 1599, 2-(5-chloroypyridin-2-yl)-N-((2R,4R,4aS,5aR,6S,7S,8R,9S,9aR, 10aS)-4a,7,9-trihydroxy-2-methyl-6,8-bis(methyl-amino)decahydro-2H-benzo[b]pyrano [2,3-e] [1,4]dioxin-4-yl)acetamide], the intracellular uptake [1] is listed as “concentration-dependent intracellular uptake”, the “fuELF fraction unbound in epithelial lining fluid” value [2] is listed as 0.940 and the “fuELF fraction unbound in epithelial lining fluid” value [3] is listed as 0.948. The “k(b/p) blood to plasma ratio” value [4] was 0.812, the “fuPlasma fraction unbound in plasma” value ([5]; Mouse plasma, 0.5 and 5 mg/L, 37 °C, 4 h) was 0.602 and the “plasma protein binding” value ([5]; mouse and rat) was “low plasma protein binding”. The “dose dependency of disposition” value ([6]; dose range of 10 to 400 mg/kg in mice) was “did not suggest any dose dependencies”, the “AUCinf Liver Observed” value ([6]; IV QD5 10 mg/kg) was 19.6 µg·h/g and the “AUCinf Liver Observed” value ([6]; IV SD 10 mg/kg) was 19.9 µg·h/g. The “AUCinf Liver Observed” value ([6]; SC QD5 200 mg/kg) was 336 µg·h/g, the “AUCinf Liver Observed” value ([6]; SC SD 50 mg/kg) was 91.8 µg·h/g and the “AUCinf Lung Observed” value ([6]; IV QD5 10 mg/kg) was 4.05 µg·h/g. The “AUCinf Lung Observed” value ([6]; IV SD 10 mg/kg) was 3.79 µg·h/g, the “AUCinf Lung Observed” value ([6]; SC QD5 200 mg/kg) was 69.1 µg·h/g and the “AUCinf Lung Observed” value ([6]; SC SD 50 mg/kg) was 19.1 µg·h/g. For the same compound, the “AUCinf Observed” value ([6]; IPA BIW 50 mg/kg) was 14.2 µg·h/mL, the “AUCinf Observed” value ([6]; IPA BIW 150 mg/kg) was 108 µg·h/mL and the “AUCinf Observed” value ([6]; IPA QD5 10 mg/kg) was 3.57 µg·h/mL. The “AUCinf Observed” value ([6]; IPA QD5 50 mg/kg) was 39.8 µg·h/mL, the “AUCinf Observed” value ([6]; IPA QD5 150 mg/kg) was 96.9 µg·h/mL and the “AUCinf Observed” value ([6]; IPA SD 10 mg/kg) was 5.51 µg·h/mL. For the same compound, the “AUCinf Observed” value ([6]; IPA SD 50 mg/kg) was 23.2 µg·h/mL, the “AUCinf Observed” value ([6]; IPA SD 150 mg/kg) was 59.5 µg·h/mL and the “AUCinf Observed” value ([6]; IPA TIW 10 mg/kg) was 5.36 µg·h/mL. The “AUCinf Observed” value ([6]; IPA TIW 50 mg/kg) was 24.3 µg·h/mL, the “AUCinf Observed” value ([6]; IPA TIW 150 mg/kg) was 61.7 µg·h/mL and the “AUCinf Observed” value ([6]; IV QD5 10 mg/kg) was 6.37 µg·h/mL. The “AUCinf Observed” value ([6]; IV SD 10 mg/kg) was 7.52 µg·h/mL, the “AUCinf Observed” value ([6]; SC QD5 200 mg/kg) was 227 µg·h/mL and the “AUCinf Observed” value ([6]; SC SD 50 mg/kg) was 40.4 µg·h/mL. The “AUCinf Spleen Observed” value ([6]; IV QD5 10 mg/kg) was 3.91 µg·h/g, the “AUCinf Spleen Observed” value ([6]; IV SD 10 mg/kg) was 3.42 µg·h/g and the “AUCinf Spleen Observed” value ([6]; SC QD5 200 mg/kg) was 110 µg·h/g. For the same compound, the “AUCinf Spleen Observed” value ([6]; SC SD 50 mg/kg) was 23.6 µg·h/g, the CLR renal clearance [7] was 3.27 L/h and the estimated absorption half-life ([8]; IPA administration site, mice) was ~ 8 min. For the same compound, the bioavailability ([8]; IPA administration, mice) was 33%, the “F Bioavailability component” value [8, 16] was 0.33 (2.03) and the “Ka 1st order absorption rate constant” value [8, 16] was 5.03 (4.53). For the same compound, the “KC→IKidney 1st order back flux from cellular sub compartment of the kidney” value [8, 17] was 0.15 (31.0) 1/h, the “KC→ILiver 1st order back flux from cellular sub compartment of the liver” value [8, 17] was 0.061 (13.7) 1/h and the “KC→ILung 1st order back flux from cellular sub compartment of the lung” value [8, 17] was 0.028 (41.5) 1/h. The “KC→ISpleen 1st order back flux from cellular sub compartment of the spleen” value [8, 17] was 0.01 (106) 1/h, the “KC→Iothers 1st order back flux from cellular sub compartment of the other tissues” value [8, 17] was 7.0 × 10^−5 (142) 1/h and the “F Bioavailability component” value ([8]; Subcutaneous Estimate (%RSE)) was 0.86 (6.15). For the same compound, the “Ka 1st order absorption rate constant” value ([8]; Subcutaneous Estimate (%RSE)) was 4.36 (7.86), the “AUCinf Liver Fold Difference” value ([8]; IV QD5 10 mg/kg) was 1.58 and the “AUCinf Liver Fold Difference” value ([8]; IV SD 10 mg/kg) was 1.2. The “AUCinf Liver Fold Difference” value ([8]; SC QD5 200 mg/kg) was 1.55, the “AUCinf Liver Fold Difference” value ([8]; SC SD 50 mg/kg) was 1.3 and the “AUCinf Lung Fold Difference” value ([8]; IV QD5 10 mg/kg) was 1.39. For the same compound, the “AUCinf Lung Fold Difference” value ([8]; IV SD 10 mg/kg) was 1.65, the “AUCinf Lung Fold Difference” value ([8]; SC QD5 200 mg/kg) was 1.42 and the “AUCinf Lung Fold Difference” value ([8]; SC SD 50 mg/kg) was 1.41. For the same compound, the “AUCinf Fold Difference (predicted vs observed)” value ([8]; IPA BIW 50 mg/kg) was 1.70, the “AUCinf Fold Difference (predicted vs observed)” value ([8]; IPA BIW 150 mg/kg) was 1.49 and the “AUCinf Fold Difference (predicted vs observed)” value ([8]; IPA QD5 10 mg/kg) was 1.36. For the same compound, the “AUCinf Fold Difference (predicted vs observed)” value ([8]; IPA QD5 50 mg/kg) was 1.64, the “AUCinf Fold Difference (predicted vs observed)” value ([8]; IPA QD5 150 mg/kg) was 1.33 and the “AUCinf Fold Difference (predicted vs observed)” value ([8]; IPA SD 10 mg/kg) was 1.13. The “AUCinf Fold Difference (predicted vs observed)” value ([8]; IPA SD 50 mg/kg) was 1.05, the “AUCinf Fold Difference (predicted vs observed)” value ([8]; IPA SD 150 mg/kg) was 1.23 and the “AUCinf Fold Difference (predicted vs observed)” value ([8]; IPA TIW 10 mg/kg) was 1.11. The “AUCinf Fold Difference (predicted vs observed)” value ([8]; IPA TIW 50 mg/kg) was 1.00, the “AUCinf Fold Difference (predicted vs observed)” value ([8]; IPA TIW 150 mg/kg) was 1.18 and the “AUCinf Fold Difference (predicted vs observed)” value ([8]; IV QD5 10 mg/kg) was 1.39. The “AUCinf Fold Difference (predicted vs observed)” value ([8]; IV SD 10 mg/kg) was 1.18, the “AUCinf Fold Difference (predicted vs observed)” value ([8]; SC QD5 200 mg/kg) was 1.43 and the “AUCinf Fold Difference (predicted vs observed)” value ([8]; SC SD 50 mg/kg) was 1.02. The “AUCinf Spleen Fold Difference” value ([8]; IV QD5 10 mg/kg) was 1.44, the “AUCinf Spleen Fold Difference” value ([8]; IV SD 10 mg/kg) was 1.47 and the “AUCinf Spleen Fold Difference” value ([8]; SC QD5 200 mg/kg) was 1.14. For the same compound, the “AUCinf Spleen Fold Difference” value ([8]; SC SD 50 mg/kg) was 1.11, the “estimated first-order absorption half-life” value ([8]; subcutaneous administration site, mice) was ~ 10 min and the bioavailability ([8]; subcutaneous administration, mice) was 86%. For the same compound, the “k(b/p) blood to plasma ratio” value [9] was 0.552, the “ω KI→CLiver inter-animal variability on KI→CLiver” value [10] was 0.61 (29.8) and the “ω KI→CLung inter-animal variability on KI→CLung” value [10] was 0.87 (30.6). The “ω KI→COther inter-animal variability on KI→COthers” value [10] was 0.48 (21.6), the “ω KI→CSpleen inter-animal variability on KI→CSpleen” value [10] was 0.66 (41.0) and the “difference in pharmacokinetics between healthy and infected mice” value [11] was “no significant difference”. The “PAMPA concentrations in the acceptor compartment” value [12] was “below the limit of detection”, the “AUCinf Observed” value [13] was 19.8 µg·h/mL and the “fuPlasma fraction unbound in plasma” value [14] was 0.563. The “AUCinf Fold Difference (predicted vs observed)” value [15] was 1.58.

Reference: PMC10305115, “Development of a Minimalistic Physiologically Based Pharmacokinetic (mPBPK) Model for the Preclinical Development of Spectinamide Antibiotics” (Pharmaceutics, 2023)
